From paper PMC8744235 (Journal of Biomedical Science, 2022)
Values joined by “and” are separate entries in the source; they are usually repeats but may differ in a detail not shown here. Identical values can stand only once. Counter-ions that a name gives are not always drawn. Like-named read-outs stand apart in the source and are kept apart here.

Experiments:
colonic mucosa = system: colonic mucosa; design: method as in PMID 32014250; details: cited from earlier work
SMCT1 = details: inhibition of uptake of SMCT1 substrate nicotinate, mouse colon cell lines; cited from earlier work
[1] = system: [^3H]VPA uptake in WT (hSOD1^WT) NSC-34 cell line; experiment: Inhibition of [3H]VPA uptake by substrates/inhibitors/drugs, WT cell line; format: cell-based; details: for [^3H]VPA uptake (% of control): 10 s, 37 °C
[2] = system: [^3H]VPA uptake in MT (hSOD1^G93A) NSC-34 cell line; details: for [^3H]VPA uptake (% of control): 10 s, 37 °C
[3] = system: [^3H]VPA uptake in MT (hSOD1^G93A) NSC-34 cell line; experiment: cells
FRTL-5 cells = details: inhibition of GHB uptake by FRTL-5 cells; cited from earlier work
[4] = system: NSC-34 mutant-type (NSC34/hSOD1^G93A) cell line; experiment: [3H]VPA cellular uptake and kinetic parameters, MT ALS cell line; format: in vitro ADME
Source text: (§1) To maintain the sodium-free environment in the ECF buffer, NaCl and NaHCO3 was replaced with […] and N-methyl-D-glucamine (NMG), respectively. […] Similarly, to observe the effect of pH, the ECF buffer was adjusted to pH 6.0-7.4 using HCl or NaOH following a previously described experimental procedure. […] For the Eadie-Hofstee plot, the saturable components were plotted by subtracting the non-saturable uptake from the total uptake rate.

NSC-34 MT cell line = experiment: Cell viability (MTT) assay, glutamate- and H2O2-induced neurotoxicity, MT; details: 24 h
Procedure: (§2) Then, an MTT [3‐(4,5‐[…]‐2‐yl)‐2,5‐diphenyltetrazoliumbromide] solution (5 mg/mL) was added and the cells were stored in the dark at 37 °C until the appearance of a purple precipitate (formazan). Then, DMSO was added and the cells were left for 15 min; afterwards, the absorbance was measured using an Infinite F200 PRO microplate reader (Tecan Trading AG, Männedorf, Switzerland) at […]. Images were captured using an EVOS XL Core Cell Imaging System (Life technologies, Thermo Fisher Scientific Korea Co., Ltd.).

[5] = in the body; cited from earlier work
[6] = system: NSC-34 wild-type (NSC-34/hSOD1^WT) cell line; experiment: [3H]VPA cellular uptake and kinetic parameters, WT cell line; format: in vitro ADME
Source text: as §1

NSC-34 WT cell line = experiment: Cell viability (MTT) assay, glutamate- and H2O2-induced neurotoxicity, WT; details: 24 h
Procedure: as §2

[7] = NSC-34, pH 7.4, read-out: IC50 for [^3H]VPA uptake
[8] = NSC-34, pH 6, read-out: IC50 for [^3H]VPA uptake
[9] = 5–30 s, pH 6.0–7.4, sodium-free (NMG) buffer
[10] = high-affinity site, unlabeled VPA 0–10 mM, 10 s, pH 7.4, 37 °C
[11] = low-affinity site, 10 s, pH 7.4
[12] = VPA 2 mM added to glutamate (2 mM) and H2O2 (300 µM)

| SMILES | [^3H]VPA uptake (% of control) ([1]; compound 1 mM, pH 6.0) | [^3H]VPA uptake (% of control) ([1]; compound 10 mM, pH 6.0) | [^3H]VPA uptake (% of control) ([2]; compound 1 mM, pH 6.0) | [^3H]VPA uptake (% of control) ([2]; compound 10 mM, pH 6.0) | other results |
| --- | --- | --- | --- | --- | --- |
| Nc1ccc(O)c(C(=O)O)c1 [5-aminosalicylic acid] |  |  |  |  | Km (colonic mucosa): 2400 µM; Ki/IC50 (SMCT1): 2.8 mM |
| CC(=O)O [Acetic acid, acetic acid] | 54.9 ± 6.7 % of control | 24.4 ± 3.0 % of control | 40.3 ± 5.0 % of control | 15.4 ± 1.4 % of control |  |
| N#CC(=Cc1ccc(O)cc1)C(=O)O [CHC, α-cyano-4-hydroxycinnamate] |  | 67.7 ± 9.0 % of control |  | 74.6 ± 7.1 % of control |  |
| O=C(O)CC(O)(CC(=O)O)C(=O)O [Citric acid, citric acid] |  | 113 ± 3 % of control |  | 125 ± 13 % of control |  |
| O=S(=O)(O)c1cc(N=C=S)ccc1C=Cc1ccc(N=C=S)cc1S(=O)(=O)O [DIDS, 4,4′-diisothiocyano-2,2′-stilbenedisulfonic acid] | 54.8 ± 4.3 % of control |  | 58.8 ± 4.9 % of control |  | depletion in VPA transport ([1]; 1 mM): approximately 40%; depletion in VPA transport ([2]; 1 mM): approximately 40% |
| CC1=NN(c2ccccc2)C(=O)C1 [Edaravone, edaravone] | 80.3 ± 6.0 % of control | 67.3 ± 7.6 % of control | 81.0 ± 5.4 % of control | 68.6 ± 6.3 % of control | IC50 [3, 7]: 28.9 mM |
| C[C@]12CC[C@@H]3c4ccc(OS(=O)(=O)O)cc4CC[C@H]3[C@@H]1CCC2=O [Estrone − 3 sulfate, estrone 3-sulfate] |  | 60.6 ± 8.4 % of control |  | 58.2 ± 8.5 % of control |  |
| NS(=O)(=O)c1cc(C(=O)O)c(NCc2ccco2)cc1Cl [Furosemide, furosemide] | 61.7 ± 6.3 % of control |  | 61.7 ± 2.2 % of control |  | [^3H]VPA uptake (% of control) ([1]; compound 5 mM, acidic pH): 77.5 ± 4.9 % of control; [^3H]VPA uptake (% of control) ([2]; compound 5 mM, acidic pH): 82.3 ± 7.5 % of control |
| CC(C)Cc1ccc(C(C)C(=O)O)cc1 (centres unmarked) [Ibuprofen] | 64.3 ± 3.6 % of control | 22.3 ± 1.5 % of control | 61.9 ± 7.5 % of control | 33.5 ± 1.0 % of control | IC50 [3, 8]: 6.65 mM; IC50 [3, 7]: 36 mM; IC50 (FRTL-5 cells): in the micromolar range |
| C[C@H](O)C(=O)O [L-lactate] |  |  |  |  | IC50 (FRTL-5 cells): in the micromolar range |
| Nc1ccc(C(=O)NCC(=O)O)cc1 [PAH, para-aminohippuric acid] | 71.0 ± 5.5 % of control | 75.8 ± 2.3 % of control | 58.7 ± 2.9 % of control | 63.5 ± 5.5 % of control |  |
| O=C(O)CCCc1ccccc1 [PBA, 4-phenylbutyric acid] |  | 43.1 ± 2.2 % of control |  | 56.6 ± 3.0 % of control |  |
| O=C(O)c1ccccc1O [Salicylic acid] | 64.9 ± 2.0 % of control | 17.9 ± 1.5 % of control | 78.8 ± 8.6 % of control | 31.9 ± 1.6 % of control | IC50 [3, 8]: 7.36 mM |
| CCCC(CCC)C(=O)O [VPA, Valproic acid] | 78.3 ± 4.5 % of control | 35.9 ± 5.2 % of control | 78.4 ± 1.6 % of control | 37.4 ± 4.2 % of control | dependence of [^3H]VPA uptake [4, 9]: time, pH, and sodium dependent; Vmax1 ([4]; high-affinity site, pH 7.4): 0.0232 ± 0.0007 nmol/mg protein/10 s; Km1 [4, 10]: 19.1 ± 0.7 µM; Km2 [4, 11]: 1.14 ± 0.14 mM and 1.144 ± 0.143 mM; Vmax2 ([4]; low-affinity site, pH 7.4): 0.231 ± 0.015 nmol/mg protein/10 s; neuroprotective effect on cell viability (MTT) (NSC-34 MT cell line; [12]): restored the viability; half-life [5]: 9 to 16 h; dependence of [^3H]VPA uptake [6, 9]: time, pH, and sodium dependent; Vmax1 ([6]; high-affinity site, pH 7.4): 0.0083 ± 0.0044 nmol/mg protein/10 s; Km1 [6, 10]: 37.8 ± 3.0 µM; Km2 [6, 11]: 4.59 ± 0.62 mM and 4.588 ± 0.620 mM; Vmax2 ([6]; low-affinity site, pH 7.4): 1.86 ± 0.24 nmol/mg protein/10 s and 1.864 ± 0.244 nmol/mg protein/10 s; neuroprotective effect on cell viability (MTT) (NSC-34 WT cell line; [12]): restored the viability |
| N[C@@H](CCC(=O)O)C(=O)O [glutamate] |  |  |  |  | effect of neurotoxic stimulus on cell viability (MTT) (NSC-34 MT cell line; glutamate 2 mM or H2O2 300 µM): significantly decreased the viability; effect of neurotoxic stimulus on cell viability (MTT) (NSC-34 WT cell line; glutamate 2 mM or H2O2 300 µM): significantly decreased the viability |
| CC(C(=O)O)c1cccc(C(=O)c2ccccc2)c1 (centres unmarked) [ketoprofen] |  |  |  |  | IC50 (FRTL-5 cells): in the micromolar range |
| CCCN(CCC)S(=O)(=O)c1ccc(C(=O)O)cc1 [probenecid] |  |  |  |  | IC50 (FRTL-5 cells): in the micromolar range |
